Results reported in patent US20080221134A1, “8-ALKYNYLXANTHINES AND DERIVATIVES” (priority 2006, published 2008).

Key:
[1] = tested on: CGS-21680 induced catalepsy; assay: Acute CGS-21680 induced catalepsy test; format: in vivo, rat; conditions: i.p. in DMSO, 0.1-10 mg/kg; listed as 8-(phenylethynyl)-DPMX
Experimental: (§1) Animals were administered with Reserpine or CGS-21680 according to methods known to the skilled person in the art. These models and procedures are e.g. described by Ferré S. et al., Neurosci. Let., 1991, 130, 162; Ferré S. et al., Neuroscience, 1992, 51, 501; Kafka S. H. et al., Eur. J. Pharmacol., 1996, 295, 147; Rimondini R. et al., Neuropsychopharmacology, 1997, 17, 82 and are herein incorporated by reference. In the acute CGS-21680 induced catalepsy model (CGS model) the test compounds (TC, compounds according to the present invention) and CGS-21680 (i.p. 2 mg/kg) were administered 60 minutes before the start of the catalepsy bar measurement and behavioural testing described below (see also FIG. 1). In the acute Reserpine induced catalepsy model (RES model Resperine (subcutaneously, 3 mg/kg) was injected 24 h prior to the test compound application. Catalepsy bar measurement took place 60 minutes after test compound application (see FIG. 1). Test compounds were administered i.p. in DMSO in following doses (mg/kg): 0.1, 0.3, 1, 3, 10.
(§2) Dimethylsulfoxide (DMSO) was used as vehicle for the test compounds and Reserpine. Reserpine was dissolved in DMSO in a concentration of 3 mg/ml. A 10% (w/v) Cyclodextrin solution was used as vehicle for CGS-21680. CGS 21680 was dissolved in 10% (w/v) Cyclodextrine in a concentration of 2 mg/ml.
Caffeine was used as a reference compound in the CGS-21680 induced catalepsy model. A caffeine solution was prepared with water for injection purposes to a concentration of 30 mg/ml. The solution was administered intraperitoneally in a volume of 1 ml/kg (30 mg/kg) 30 minutes before the beginning of testing and after CGS-21680 pre-treatment (1 hour prior to testing).
The catalepsy bar after CGS-21680 administration was measured (CAT) as follows: The rat was placed with its forepaws on a log of wood. […] If the animal descended faster than 1 second, the trial was regarded as invalid. If more than 20 trials were rated as invalid, the values of all uncompleted trials were noted as 0. The animal was tested until five trials had been completed and the time for each trial was noted. Only the values of the last three trials were used for the analysis. The following parameters were calculated: maximum time to descend (s) and median time to descend (s).
Behavioural observation (BO) included the measurement of the body tone, inclined plane and grip strength.
The rat is taken in the hand of the observer and the animal's body tone is rated as normal, soft or hard. The rating is performed immediately after taking the animal from its home cage before performance of catalepsy testing. The following parameters were calculated: mean occurrence of hard body tone and mean occurrence of soft body tone.
The rat is horizontally placed to an inclined plane for a maximum time of 30 seconds. Time to reach bottom or top is measured. […] The test is performed after catalepsy testing. Time to leave the inclined plane(s) was measured.
The rat is put on a grip and the observer pulls the animal back on his tail. The strength (fore paws and hind paws) by which it holds on the grid is scored as grasping and pulling, grasping without pulling or no grasping. The test is performed after the inclined plane test. The following parameters were calculated: mean score of fore paw grip strength and mean score of hind paw grip strength.
(§3) All statistical tests were performed two tailed with a value of p<0.05 considered as significant.
(§4) To assess the effects of CGS-21680 and Reserpine pre-treatment compared to vehicle treated controls statistical comparisons between the test groups were performed using a U test statistic.
To assess the effects of test compounds on CGS-21680 and Reserpine pre-treated animals correlation analyses including animals from test groups and the respective test compound-treated groups were performed. […]

[2] = tested on: Reserpine induced catalepsy; assay: Acute Reserpine induced catalepsy test; format: in vivo, rat; conditions: i.p. in DMSO, 0.1-10 mg/kg; listed as 8-(phenylethynyl)-DPMX
Experimental: as §1, §2
Apomorphine was used as a reference compound in the Reserpine induced catalepsy model. Apomorphine injection solution was diluted with purified water to a concentration of 0.3 mg/ml. The solution was administered subcutaneously (s.c.) in a volume of 1 ml/kg (0.3 mg/kg) 20 minutes before the begin of testing after Reserpine pre-treatment (25 hours prior to testing).
The catalepsy bar after Reserpine administration was measured (CAT) as follows: The rat was placed with its forepaws on a log of wood. […] The animal was tested for three trials and the time for each trial was noted. The following parameters were calculated: maximum time to descend (s) and median time to descend (s). […]
as §3, §4
To assess the effects of test compounds on CGS-21680 and Reserpine pre-treated animals correlation analyses including animals from test groups and the respective test compound-treated groups were performed.
Additionally, parametric and non-parametric comparisons for the median catalepsy measure were performed to assess the reliability of the method. In case of parametric testing a GLM analyses was performed including animals from a control group (only vehicle treated animals) and the respective test compound-treated groups with dose as a categorical factor. In case of a significant result, a Dunnett's post hoc test was performed between the according test compound groups and a control group as reference group. In case of non-parametric testing a Kruskal-Wallis H-test was performed including animals from a control group and the respective test compound groups. In case of a significant result single U-test comparisons were performed between a control group and the groups treated with different doses of the test compound.

[3] = Water solubility (statement); format: physicochemical; conditions: listed as 8-(phenylethynyl)-DMPX
human A2A receptor = human A2A receptor (Homo sapiens, UniProt P29274); assay: Human A2A receptor IC50/Imax (unpublished results); format: binding
Chain of human A2A receptor (P29274 whole entry): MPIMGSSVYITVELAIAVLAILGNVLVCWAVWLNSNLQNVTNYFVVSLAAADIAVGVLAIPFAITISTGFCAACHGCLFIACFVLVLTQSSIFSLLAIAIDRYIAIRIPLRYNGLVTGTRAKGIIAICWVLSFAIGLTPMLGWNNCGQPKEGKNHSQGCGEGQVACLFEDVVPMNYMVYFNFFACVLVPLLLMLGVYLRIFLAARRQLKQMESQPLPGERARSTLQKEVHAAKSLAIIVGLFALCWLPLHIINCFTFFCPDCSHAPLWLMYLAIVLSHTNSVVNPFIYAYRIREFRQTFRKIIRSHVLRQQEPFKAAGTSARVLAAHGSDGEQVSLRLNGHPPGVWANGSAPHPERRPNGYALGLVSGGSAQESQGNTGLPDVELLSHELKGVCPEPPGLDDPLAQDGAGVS

## C#CCn1c(=O)c2c(nc(C#Cc3ccccc3)n2C)n(C)c1=O
[1]
  effect on catalepsy time in acute CGS-21680 induced catalepsy model: inactive
[2]
  effect on catalepsy time in acute Reserpine induced catalepsy model: inactive
[3]
  water solubility (in words): low solubility
Human A2A receptor
  IC50: > 0.3 µM
  Imax at the human receptor: about 37%
